Each structure is given as a SMILES string.

The series can be described thus: Thermal stability by thermogravimetric analysis (TGA). It is filed as physicochemical. The settings on record: listed as Form 2 (monohydrate), monohydrate. The protocol: Thermogravimetric analysis was conducted using a Discovery TGA (TA instruments) thermogravimetric analyzer. Samples of approximately 10 mg were weighed into aluminum pans and heated from ambient ([…]) to 250° C. at 10° C./minute heating rate under nitrogen purge (10 mL/min for both sample chamber and balance).
Thermal stability data were obtained through thermogravimetric analysis (TGA) according to General Method 4, and Differential Scanning Calorimetry (DSC) scan according to General Method 5A.

Take `CC(C)n1c(C(C)(C)O)nc2c(F)cc(-c3nc(N[C@@H]4CCOC[C@H]4O)ncc3Cl)cc21` [Form 2, 1,5-anhydro-3-({5-chloro-4-[4-fluoro-2-(2-hydroxypropan-2-yl)-1-(propan-2-yl)-1H-benzimidazol-6-yl]pyrimidin-2-yl}amino)-2,3-dideoxy-D-threo-pentitol monohydrate]: the “Thermal stability via TGA (° C.)” value amounted to 60 °C.

For the origin of these results see patent publication US12570641B2, “Solid forms of a CDK4 inhibitor” (Pfizer Inc., priority 2020, dated 2026).
